# Laboratory results from paper PMC12102759 (Protein Science : A Publication of the Protein Society, 2025).
# Where two headings read alike, the source gives them in different places. Residues, ends and D or L forms follow the SMILES beside them. *: point of attachment. FITC = O=C1OC2(c3ccc(O)cc3Oc3cc(O)ccc32)c2ccc(NC(=S)*)cc21
# How the values were obtained:
# Experiment in all cases: biochemical
# [1] = biological target: NSP9 (Severe acute respiratory syndrome coronavirus 2, UniProt P0DTC1); type: binding, SARS‐CoV‐2
# [2] = biological target: NSP3 SUD-M (Severe acute respiratory syndrome coronavirus 2, UniProt P0DTC1); type: binding, SARS‐CoV‐2
# [3] = biological target: T1, NSP3 ADRP (Severe acute respiratory syndrome coronavirus 2, UniProt P0DTC1); type: binding, SARS‐CoV‐2
# [4] = biological target: T2, NSP3 UBl1 (Severe acute respiratory syndrome coronavirus 2, UniProt P0DTC1); type: binding, SARS‐CoV‐2
# [5] = biological target: TLN1 PTB (Homo sapiens, UniProt Q9Y490); type: binding
# Chain of TLN1 PTB (Q9Y490 309-401): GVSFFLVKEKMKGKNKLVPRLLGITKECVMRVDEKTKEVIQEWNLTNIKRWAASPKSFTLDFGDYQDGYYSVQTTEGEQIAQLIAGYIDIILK
# [6] = biological target: T2, NSP3 UBl1; type: binding, SARS‐CoV‐2; remark: listed apart in the source
# [7] = biological target: T1, NSP3 ADRP; type: binding, SARS‐CoV‐2; remark: listed apart in the source
compound,measurement,setting,value
CC[C@H](C)[C@H](NC(=O)CNC(=O)[C@H](CCC(=O)O)NC(=O)[C@H](C)NC(=S)Nc1ccc2c(c1)C(=O)OC21c2ccc(O)cc2Oc2cc(O)ccc21)C(=O)N[C@@H](CC(=O)O)C(=O)N[C@H](C(=O)NCC(=O)N[C@@H](CCC(=O)O)C(=O)N[C@@H](CCSC)C(=O)N1CCC[C@H]1C(=O)N[C@@H](CO)C(=O)N[C@@H](Cc1ccc(O)cc1)C(=O)N[C@@H](CC(=O)O)C(=O)N[C@@H](CC(C)C)C(=O)N[C@H](C(=O)N[C@@H](CC(C)C)C(=O)O)C(C)C)[C@@H](C)CC,Kd,[1],15.5 µM
CC(C)C[C@H](NC(=O)[C@H](CC(=O)O)NC(=O)[C@H](CCC(=O)O)NC(=O)[C@H](CCC(=O)O)NC(=O)[C@@H](NC(=O)[C@H](Cc1ccccc1)NC(=S)Nc1ccc2c(c1)C(=O)OC21c2ccc(O)cc2Oc2cc(O)ccc21)[C@@H](C)O)C(=O)N[C@@H](Cc1c[nH]cn1)C(=O)N[C@@H](Cc1ccccc1)C(=O)N[C@H](C(=O)N[C@@H](CC(C)C)C(=O)N[C@@H](Cc1ccc(O)cc1)C(=O)NCC(=O)N[C@H](C(=O)N[C@H](C(=O)N1CCC[C@H]1C(=O)N[C@@H](CO)C(=O)O)[C@@H](C)O)C(C)C)C(C)C ({FITC}-FTEEDLHFVLYGVTPS-OH),Kd,[2],19 µM
CC[C@H](C)[C@H](NC(=O)CNC(=O)[C@H](CC(C)C)NC(=O)[C@H](CC(C)C)NC(=O)[C@H](CCC(=O)O)NC(=O)[C@H](CO)NC(=O)[C@H](CC(C)C)NC(=O)[C@@H]1CCCN1C(=O)[C@H](Cc1c[nH]cn1)NC(=O)[C@H](CC(C)C)NC(=O)[C@H](Cc1ccc(O)cc1)NC(=O)[C@@H](NC(=O)[C@H](CO)NC(=O)CNC(=S)Nc1ccc2c(c1)C(=O)OC21c2ccc(O)cc2Oc2cc(O)ccc21)[C@@H](C)O)C(=O)N1CCC[C@H]1C(=O)N[C@@H](CC(C)C)C(=O)O ({FITC}-GSTYLHPLSELLGIPL-OH),Kd,[3],50.8 µM
CC(C)C[C@H](NC(=O)[C@H](C)NC(=O)[C@H](CC(C)C)NC(=O)[C@H](Cc1ccc(O)cc1)NC(=O)[C@H](CC(C)C)NC(=O)[C@H](CCC(N)=O)NC(=O)[C@H](CC(=O)O)NC(=O)[C@H](CC(C)C)NC(=O)[C@H](CC(C)C)NC(=O)[C@H](C)NC(=O)CNC(=O)[C@H](CCC(=O)O)NC(=O)[C@H](CC(=O)O)NC(=O)[C@H](CO)NC(=S)Nc1ccc2c(c1)C(=O)OC21c2ccc(O)cc2Oc2cc(O)ccc21)C(=O)N[C@@H](CCCNC(=N)N)C(=O)N[C@@H](CC(N)=O)C(=O)O ({FITC}-SDEGALLDQLYLALRN-OH),Kd,[4],67 µM
Ac-LADLIFTDSALYIPLE-NH2 [TPTE2_K101A],Kd,[5],15 µM
Ac-LADLIFTDSKLYIPLE-NH2 [TPTE2 wt],IC50,[5],15 µM
same,Kd,[5],4.5 µM
Ac-LADLIFTDSKLYLPLE-NH2 [TPTE2_I104L],Kd,[5],4.5 µM
Ac-LADLIWTDSKLYIPLE-NH2 [TPTE2_92‐107 F97W],Kd,[5],0.1 µM
same,fold higher affinity than wild‐type TPTE2_92‐107,[5],44 fold
Ac-PSDEGALLDQLYLALR-NH2 [NCOA2 wt],IC50,[6],139 µM
same,Kd,[6],39 µM
Ac-PSDEGALLQQLYLALR-NH2 [NCOA2 D1081Q],IC50,[6],108 µM
same,Kd,[6],24 µM
Ac-PSDEQALLDQLYLALR-NH2 [NCOA2 G1077Q],IC50,[6],98 µM
same,Kd,[6],19 µM
Ac-PSDEQALLQQLYLALR-NH2 [NCOA2 G1077Q D1081Q],IC50,[6],66.2 µM
same,Kd,[6],5.1 µM
Ac-STYIHPLSELLGIPLD-NH2 [MBOAT1 L20I],IC50,[7],429 µM
same,Kd,[7],152 µM
Ac-STYLHPLSELFGIPLD-NH2 [MBOAT1 L27F],IC50,[7],255 µM
same,Kd,[7],82 µM
Ac-STYLHPLSELLGIPFD-NH2 [MBOAT1 L31F],IC50,[7],285 µM
same,Kd,[7],93 µM
Ac-STYLHPLSELLGIPLD-NH2 [MBOAT1 wt],IC50,[7],175 µM
Ac-STYLHPLSELLGMPLD-NH2 [MBOAT1 I29M],IC50,[7],268 µM
same,Kd,[7],86.5 µM
Ac-STYLHPLSELLTIPLD-NH2 [MBOAT1 G28T],IC50,[7],311 µM
same,Kd,[7],104 µM
